Key:
[1] = molecular target: T1, α2 -adrenoceptor (Rattus norvegicus, UniProt P22909); experiment: α2-adrenoceptor antagonistic activity on the rat field stimulated vas deferens preparation (modified method of Drew)
T1 construct: rat field stimulated vas deferens preparation; from tissue; host or cells: rat vas deferens, field stimulated
T1 sequence (P22909 1-465): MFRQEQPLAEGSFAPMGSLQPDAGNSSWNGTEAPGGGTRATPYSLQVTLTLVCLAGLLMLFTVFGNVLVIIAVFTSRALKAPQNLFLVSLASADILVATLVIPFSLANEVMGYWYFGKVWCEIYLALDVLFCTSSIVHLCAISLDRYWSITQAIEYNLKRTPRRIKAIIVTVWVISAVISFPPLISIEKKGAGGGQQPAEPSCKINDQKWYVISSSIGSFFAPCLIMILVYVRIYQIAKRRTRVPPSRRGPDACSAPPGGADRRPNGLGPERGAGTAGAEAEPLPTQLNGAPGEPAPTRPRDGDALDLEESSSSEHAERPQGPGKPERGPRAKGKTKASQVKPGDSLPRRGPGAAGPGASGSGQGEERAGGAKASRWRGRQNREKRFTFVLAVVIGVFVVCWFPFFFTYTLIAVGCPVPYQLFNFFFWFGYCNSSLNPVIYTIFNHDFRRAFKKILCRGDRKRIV
Description: (§1) The compounds of the invention may be tested for α2 -adrenoceptor antagonistic activity on the rat field stimulated vas deferens preparation using a modification of the method of Drew, Eur. J. Pharmac., 1977,42, 123-130 as described in our GB patent No. 2136804A Specification and for the α1 -antagonist activity by the method based on that of Gillespie Br. J. Pharmac 1972, 45 404-416, as also described in GB patent specification No. 2136804A.

[2] = molecular target: T2, α1 -adrenoceptor (Rattus norvegicus, UniProt P43140); experiment: α1-adrenoceptor antagonist activity by a method based on that of Gillespie; settings: as described in GB 2136804A, read-out: pA2 for α1 -adrenoceptor antagonistic activity (converted)
T2 construct: method based on that of Gillespie Br. J. Pharmac 1972, 45 404-416; from tissue
T2 sequence (P43140 1-466): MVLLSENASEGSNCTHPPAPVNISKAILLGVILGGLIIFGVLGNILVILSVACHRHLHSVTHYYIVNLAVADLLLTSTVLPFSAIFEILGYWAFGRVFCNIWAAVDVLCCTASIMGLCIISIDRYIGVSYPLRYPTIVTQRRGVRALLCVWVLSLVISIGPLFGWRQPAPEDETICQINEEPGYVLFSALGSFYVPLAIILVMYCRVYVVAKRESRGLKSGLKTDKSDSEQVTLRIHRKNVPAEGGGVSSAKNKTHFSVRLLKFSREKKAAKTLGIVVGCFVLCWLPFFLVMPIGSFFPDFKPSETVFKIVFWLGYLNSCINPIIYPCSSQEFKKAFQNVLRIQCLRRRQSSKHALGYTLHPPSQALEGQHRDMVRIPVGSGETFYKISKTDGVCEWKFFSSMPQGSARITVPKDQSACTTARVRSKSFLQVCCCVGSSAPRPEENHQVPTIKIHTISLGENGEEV
Description: as §1

Kb ([1]; rat field stimulated vas deferens preparation, read-out: pA2 for α2 -adrenoceptor antagonist activity (converted)): 8.51 nM | α2 /α1 selectivity [antilog of (α2 pA2 - α1 pA1)] ([1]; ratio from α2 and α1 pA2 values): 32 | Kb [2]: 275 nM
Structure (SMILES): CS(=O)(=O)NCCN([C@@H]1CCN2CCc3c(oc4ccccc34)[C@@H]2C1)S(C)(=O)=O (relative stereo) [Example 2, N-[(2β,12bα)-1,3,4,6,7,12b-Hexahydro-2H-benzo[b]furo [2,3-a]quinolizin-2-yl]-N-(2-methanesulphonamidoethyl) methanesulphonamide]

Reference: patent US4788202A, “Sulphonamide derivatives as α2 -adrenoceptor antagonists” (John Wyeth & Brother Limited, priority 1985, dated 1988)
